Test results taken from PubChem BioAssay (NCI).
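The compound was tested at five concentrations on cells cultured in 96-well plates, with a 48-hour exposure period. GI50: concentration for 50% inhibition of growth. TGI is the concentration that stops growth completely.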

Assays:
Experiment in all cases: NCI anticancer screen, dose series, 48 h
ACHN renal = system: ACHN renal
UO-31 renal = system: UO-31 renal
SK-MEL-2 melanoma = system: SK-MEL-2 melanoma
EKVX NSCLC = system: EKVX NSCLC
SNB-19 CNS = system: SNB-19 CNS
LOX IMVI melanoma = system: LOX IMVI melanoma
M19-MEL melanoma = system: M19-MEL melanoma
OVCAR-3 ovarian = system: OVCAR-3 ovarian
CAKI-1 renal = system: CAKI-1 renal
NCI-H522 lung = system: NCI-H522 lung
KM20L2 colon = system: KM20L2 colon
DLD-1 colon = system: DLD-1 colon
DMS 273 small cell lung = system: DMS 273 small cell lung
SF-268 CNS = system: SF-268 CNS
OVCAR-4 ovarian = system: OVCAR-4 ovarian
SN12C renal = system: SN12C renal
HCT-15 colon = system: HCT-15 colon
SK-MEL-5 melanoma = system: SK-MEL-5 melanoma
A549 NSCLC = system: A549 NSCLC
NCI-H23 lung = system: NCI-H23 lung
SF-295 CNS = system: SF-295 CNS
IGROV1 ovarian = system: IGROV1 ovarian
TK-10 renal = system: TK-10 renal
HCC-2998 colon = system: HCC-2998 colon
SW-620 colon = system: SW-620 colon
M14 melanoma = system: M14 melanoma
COLO 205 colon = system: COLO 205 colon
SK-OV-3 ovarian = system: SK-OV-3 ovarian
HOP-62 NSCLC = system: HOP-62 NSCLC
NCI-H460 lung = system: NCI-H460 lung
UACC-257 melanoma = system: UACC-257 melanoma
LXFL 529 NSCLC = system: LXFL 529 NSCLC
UACC-62 melanoma = system: UACC-62 melanoma
U251 CNS = system: U251 CNS
HT29 colon = system: HT29 colon
SK-MEL-28 melanoma = system: SK-MEL-28 melanoma
KM12 colon = system: KM12 colon
HOP-92 NSCLC = system: HOP-92 NSCLC
OVCAR-8 ovarian = system: OVCAR-8 ovarian
786-0 renal = system: 786-0 renal
DU-145 prostate = system: DU-145 prostate
NCI/ADR-RES ovarian = system: NCI/ADR-RES ovarian
MCF7 breast = system: MCF7 breast
MDA-MB-231 breast = system: MDA-MB-231 breast
SF-539 CNS = system: SF-539 CNS
BT-549 breast = system: BT-549 breast
MDA-MB-435 = system: MDA-MB-435
RXF 393 renal = system: RXF 393 renal
NCI-H226 lung = system: NCI-H226 lung
OVCAR-5 ovarian = system: OVCAR-5 ovarian
A498 renal = system: A498 renal
T-47D breast = system: T-47D breast
K-562 leukemia = system: K-562 leukemia
PC-3 prostate = system: PC-3 prostate
MDA-N = system: MDA-N
RPMI-8226 leukemia = system: RPMI-8226 leukemia
CCRF-CEM leukemia = system: CCRF-CEM leukemia
HCT-116 colon = system: HCT-116 colon
HL-60(TB) leukemia = system: HL-60(TB) leukemia
MOLT-4 leukemia = system: MOLT-4 leukemia
SNB-75 CNS = system: SNB-75 CNS
SR leukemia = system: SR leukemia
MALME-3M melanoma = system: MALME-3M melanoma
HS 578T breast = system: HS 578T breast

Cc1ccc(C(N)=O)cc1N=NN(C)C
TGI (ACHN renal): > 100 µM | TGI (UO-31 renal): > 100 µM | TGI (SK-MEL-2 melanoma): > 100 µM | TGI (EKVX NSCLC): > 100 µM | TGI (SNB-19 CNS): > 100 µM | TGI (LOX IMVI melanoma): > 100 µM | TGI (M19-MEL melanoma): > 100 µM | TGI (OVCAR-3 ovarian): > 100 µM | TGI (CAKI-1 renal): > 100 µM | TGI (NCI-H522 lung): > 100 µM | TGI (KM20L2 colon): > 100 µM | TGI (DLD-1 colon): > 100 µM | TGI (DMS 273 small cell lung): > 100 µM | TGI (SF-268 CNS): > 100 µM | TGI (OVCAR-4 ovarian): > 100 µM | TGI (SN12C renal): > 100 µM | TGI (HCT-15 colon): > 100 µM | TGI (SK-MEL-5 melanoma): > 100 µM | TGI (A549 NSCLC): > 100 µM | TGI (NCI-H23 lung): > 100 µM | TGI (SF-295 CNS): > 100 µM | TGI (IGROV1 ovarian): > 100 µM | TGI (TK-10 renal): > 100 µM | TGI (HCC-2998 colon): > 100 µM | TGI (SW-620 colon): > 100 µM | TGI (M14 melanoma): > 100 µM | TGI (COLO 205 colon): > 100 µM | TGI (SK-OV-3 ovarian): > 100 µM | TGI (HOP-62 NSCLC): > 100 µM | TGI (NCI-H460 lung): > 100 µM | TGI (UACC-257 melanoma): > 100 µM | TGI (LXFL 529 NSCLC): > 100 µM | TGI (UACC-62 melanoma): > 100 µM | TGI (U251 CNS): > 100 µM | TGI (HT29 colon): > 100 µM | TGI (SK-MEL-28 melanoma): > 100 µM | TGI (KM12 colon): > 100 µM | TGI (HOP-92 NSCLC): > 100 µM | TGI (OVCAR-8 ovarian): > 100 µM | TGI (786-0 renal): > 100 µM

NS(=O)(=O)c1ccc(/C=C/c2ccc(F)cc2)cc1
GI50 (ACHN renal): 2.97 µM | TGI (ACHN renal): 19.4 µM | TGI (UO-31 renal): 61.1 µM | TGI (DU-145 prostate): > 100 µM | TGI (NCI/ADR-RES ovarian): > 100 µM | TGI (MCF7 breast): > 100 µM | TGI (SK-MEL-2 melanoma): 86.7 µM | TGI (EKVX NSCLC): > 100 µM | TGI (SNB-19 CNS): > 100 µM | TGI (MDA-MB-231 breast): 50.7 µM | GI50 (LOX IMVI melanoma): 26.7 µM | TGI (LOX IMVI melanoma): > 100 µM | GI50 (SF-539 CNS): 29.1 µM | TGI (SF-539 CNS): 96.1 µM | TGI (OVCAR-3 ovarian): 57 µM | GI50 (CAKI-1 renal): 36.3 µM | TGI (CAKI-1 renal): > 100 µM | GI50 (NCI-H522 lung): 4.81 µM | TGI (NCI-H522 lung): 27.6 µM | GI50 (SF-268 CNS): 20.5 µM | TGI (SF-268 CNS): > 100 µM | GI50 (OVCAR-4 ovarian): 34.4 µM | TGI (OVCAR-4 ovarian): > 100 µM | TGI (SN12C renal): > 100 µM | GI50 (HCT-15 colon): 9.97 µM | TGI (HCT-15 colon): 33.3 µM | GI50 (BT-549 breast): 0.205 µM | TGI (BT-549 breast): 4.92 µM | GI50 (A549 NSCLC): 8.93 µM | TGI (A549 NSCLC): 37.1 µM | GI50 (MDA-MB-435): 27 µM | TGI (MDA-MB-435): > 100 µM | TGI (RXF 393 renal): 46.8 µM | GI50 (NCI-H23 lung): 45.1 µM | TGI (NCI-H23 lung): > 100 µM | GI50 (NCI-H226 lung): 7.97 µM | TGI (NCI-H226 lung): 27 µM | TGI (OVCAR-5 ovarian): > 100 µM | TGI (SF-295 CNS): 78.6 µM | GI50 (IGROV1 ovarian): 20.9 µM | TGI (IGROV1 ovarian): 61.9 µM | TGI (TK-10 renal): > 100 µM | TGI (A498 renal): > 100 µM | TGI (HCC-2998 colon): > 100 µM | TGI (SW-620 colon): > 100 µM | TGI (M14 melanoma): > 100 µM | TGI (COLO 205 colon): > 100 µM | TGI (SK-OV-3 ovarian): 57.6 µM | TGI (T-47D breast): 57.6 µM | TGI (HOP-62 NSCLC): 65.9 µM | TGI (NCI-H460 lung): > 100 µM | TGI (UACC-257 melanoma): > 100 µM | GI50 (K-562 leukemia): 14.9 µM | TGI (K-562 leukemia): > 100 µM | TGI (PC-3 prostate): > 100 µM | TGI (MDA-N): > 100 µM | GI50 (RPMI-8226 leukemia): 42.3 µM | TGI (RPMI-8226 leukemia): > 100 µM | GI50 (U251 CNS): 7.93 µM | TGI (U251 CNS): 45.7 µM | GI50 (CCRF-CEM leukemia): 62 µM | TGI (CCRF-CEM leukemia): > 100 µM | GI50 (HT29 colon): 29.4 µM | TGI (HT29 colon): > 100 µM | TGI (SK-MEL-28 melanoma): > 100 µM | TGI (HCT-116 colon): 50.3 µM | GI50 (HL-60(TB) leukemia): 37.3 µM | TGI (HL-60(TB) leukemia): > 100 µM | GI50 (MOLT-4 leukemia): 12.9 µM | TGI (MOLT-4 leukemia): > 100 µM | TGI (SNB-75 CNS): > 100 µM | GI50 (KM12 colon): 16.3 µM | TGI (KM12 colon): 67 µM | GI50 (SR leukemia): 10.5 µM | TGI (SR leukemia): > 100 µM | TGI (MALME-3M melanoma): > 100 µM | GI50 (HOP-92 NSCLC): 33.2 µM | TGI (HOP-92 NSCLC): 77.6 µM | GI50 (OVCAR-8 ovarian): 15.2 µM | TGI (OVCAR-8 ovarian): 30 µM | GI50 (HS 578T breast): 23.7 µM | TGI (HS 578T breast): 77.7 µM | TGI (786-0 renal): 41.2 µM

CN(C)c1ccc(/C(F)=C(F)/C(F)=C(F)/C(F)=C(\F)c2ccc(Br)cc2)cc1
TGI (ACHN renal): > 100 µM | TGI (UO-31 renal): > 100 µM | TGI (DU-145 prostate): > 63.7 µM | TGI (NCI/ADR-RES ovarian): 22.4 µM | TGI (MCF7 breast): > 100 µM | TGI (SK-MEL-2 melanoma): > 100 µM | TGI (EKVX NSCLC): > 100 µM | TGI (SNB-19 CNS): > 78.5 µM | TGI (MDA-MB-231 breast): > 100 µM | TGI (LOX IMVI melanoma): > 100 µM | TGI (SF-539 CNS): > 100 µM | TGI (OVCAR-3 ovarian): > 60.5 µM | TGI (CAKI-1 renal): > 84 µM | TGI (NCI-H522 lung): 27.1 µM | TGI (SF-268 CNS): > 100 µM | TGI (OVCAR-4 ovarian): > 100 µM | TGI (SN12C renal): > 25.5 µM | TGI (HCT-15 colon): > 100 µM | TGI (BT-549 breast): > 100 µM | TGI (SK-MEL-5 melanoma): > 100 µM | TGI (A549 NSCLC): > 100 µM | TGI (MDA-MB-435): 10.7 µM | TGI (RXF 393 renal): 38.7 µM | TGI (NCI-H23 lung): 63.4 µM | TGI (NCI-H226 lung): > 100 µM | TGI (OVCAR-5 ovarian): > 100 µM | TGI (SF-295 CNS): > 52.1 µM | TGI (IGROV1 ovarian): > 100 µM | TGI (TK-10 renal): > 100 µM | TGI (A498 renal): > 95.5 µM | TGI (HCC-2998 colon): > 100 µM | TGI (SW-620 colon): > 100 µM | TGI (M14 melanoma): > 69.7 µM | TGI (COLO 205 colon): 63.2 µM | TGI (SK-OV-3 ovarian): > 100 µM | TGI (T-47D breast): > 100 µM | TGI (HOP-62 NSCLC): > 100 µM | TGI (NCI-H460 lung): > 100 µM | TGI (UACC-257 melanoma): > 100 µM | TGI (K-562 leukemia): > 100 µM | TGI (PC-3 prostate): > 52 µM | TGI (MDA-N): 7.54 µM | TGI (RPMI-8226 leukemia): > 100 µM | TGI (UACC-62 melanoma): > 100 µM | TGI (U251 CNS): 44.7 µM | TGI (CCRF-CEM leukemia): > 78.8 µM | TGI (HT29 colon): 98 µM | TGI (SK-MEL-28 melanoma): > 100 µM | TGI (HCT-116 colon): > 25.5 µM | TGI (HL-60(TB) leukemia): > 75 µM | TGI (MOLT-4 leukemia): > 79.6 µM | TGI (SNB-75 CNS): 92.9 µM | TGI (KM12 colon): > 100 µM | TGI (SR leukemia): > 100 µM | TGI (MALME-3M melanoma): > 71.8 µM | TGI (HOP-92 NSCLC): > 100 µM | TGI (OVCAR-8 ovarian): > 96 µM | TGI (HS 578T breast): 52.6 µM | TGI (786-0 renal): 22.2 µM
